In US20130116241A1, “NOVEL INHIBITOR COMPOUNDS OF PHOSPHODIESTERASE TYPE 10A” (AbbVie Inc., priority 2011, published 2013):
Counter-ions that a name gives are not always drawn.

Target: human PDE10A (UniProt Q9Y233)
Experiment: Measurement of PDE activity (recombinant enzyme, HTRF cAMP kit)
Assay type: biochemical
Settings: Table 1, substrate 20 nM for PDE10, 60 minutes at 29 C
In short: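 Recombinant human PDE10A (10–250 pM range across PDEs) with 20 nM cAMP substrate in 20 mM Tris-HCl pH 7.5, 10 mM MgCl2, 0.1% BSA, compound pre-mixed with enzyme. Ran 60 min at 29 °C. Remaining cAMP read by HTRF, converted to % of uninhibited activity, and IC50 fitted.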

Chain of human PDE10A (Q9Y233 290-1055 limits assumed): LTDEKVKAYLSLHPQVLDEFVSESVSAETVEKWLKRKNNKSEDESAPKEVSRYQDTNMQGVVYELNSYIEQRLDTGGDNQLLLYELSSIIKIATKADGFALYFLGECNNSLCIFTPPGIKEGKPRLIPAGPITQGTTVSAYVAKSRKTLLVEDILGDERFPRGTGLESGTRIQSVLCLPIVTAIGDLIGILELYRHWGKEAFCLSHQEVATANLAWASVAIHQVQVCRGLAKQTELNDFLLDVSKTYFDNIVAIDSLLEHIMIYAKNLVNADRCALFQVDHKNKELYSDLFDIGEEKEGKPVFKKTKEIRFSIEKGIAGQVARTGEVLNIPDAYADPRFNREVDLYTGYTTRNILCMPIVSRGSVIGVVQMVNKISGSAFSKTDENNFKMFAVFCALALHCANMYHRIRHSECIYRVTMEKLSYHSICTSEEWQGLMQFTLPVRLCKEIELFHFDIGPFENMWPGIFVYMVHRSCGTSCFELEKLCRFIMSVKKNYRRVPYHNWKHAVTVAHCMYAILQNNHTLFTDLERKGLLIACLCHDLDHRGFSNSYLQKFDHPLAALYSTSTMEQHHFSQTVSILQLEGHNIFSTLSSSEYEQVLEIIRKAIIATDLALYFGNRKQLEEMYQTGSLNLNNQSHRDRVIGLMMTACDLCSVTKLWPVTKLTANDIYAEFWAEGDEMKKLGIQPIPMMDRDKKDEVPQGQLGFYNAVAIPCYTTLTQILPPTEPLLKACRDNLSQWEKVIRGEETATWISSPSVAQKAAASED

SMILES	IC50 [nM]
O=c1c2c(N3C4CCC3COC4)cccc2ccn1C1CC1c1ccc2ccccc2n1 [Example 263, anti 8-((1R,5S)-3-oxa-8-azabicyclo[3.2.1]octan-8-yl)-2-(2-(quinolin-2-yl)cyclopropyl)isoquinolin-1(2H)-one]	< 100
O=c1c2c(C3=CCNCC3)cccc2cnn1CCc1cn2ccccc2n1 [compound 375, hydrochloride]	< 100

Same assay, conditions: Table 1, substrate 20 nM for PDE10, 60 minutes at 29 C, read-out: IC50

SMILES	IC50 [nM]
O=c1c2c(C3CCNCC3)cccc2cnn1CCc1cn2ccccc2n1 [compound 354, hydrochloride]	< 100
O=c1c2c(-c3ccncc3)cccc2c(Br)nn1CCc1cn2ccccc2n1 [compound 370, 4-bromo-2-[2-(imidazo[1,2-a]pyridin-2-yl)ethyl]-8-(pyridin-4-yl)phthalazin-1(2H)-one]	< 100
O=c1c2c(-c3cncc(F)c3)cccc2cnn1CCc1cn2ccccc2n1 [compound 345, hydrochloride]	100 to 200
O=c1c2c(-c3ccnnc3)coc2ccn1[C@@H]1C[C@H]1c1ccc2ccccc2n1 (relative stereo) [Example 232, anti 3-(Pyridazin-4-yl)-5-(2-(quinolin-2-yl)cyclopropyl)furo[3,2-c]pyridin-4(5H)-one]	< 100
O=c1c2c(-c3ccccc3Cl)csc2cnn1CCc1ccc2ccccc2n1 [Example 17, 3-(2-chlorophenyl)-5-[2-(quinolin-2-yl)ethyl]thieno[2,3-d]pyridazin-4(5H)-one]	100 to 200
CC(C)(C)OC(=O)N1CC=C(c2cccc3cnn(CCc4cn5ccccc5n4)c(=O)c23)CC1 [Example 191, tert-Butyl 4-{3-[2-(imidazo[1,2-a]pyridin-2-yl)ethyl]-4-oxo-3,4-dihydrophthalazin-5-yl}-3,6-dihydropyridine-1(2H)-carboxylate]	200 to 500
CN(c1cccc2cnn(CCc3cn4ccccc4n3)c(=O)c12)C1COC1 [compound 387, 2-[2-(imidazo[1,2-a]pyridin-2-yl)ethyl]-8-[methyl(oxetan-3-yl)amino]phthalazin-1(2H)-one]	< 100
N#CCc1ccc(-c2csc3cnn(CCc4ccc5ccccc5n4)c(=O)c23)cc1 [Example 15, (4-{4-oxo-5-[2-(quinolin-2-yl)ethyl]-4,5-dihydrothieno[2,3-d]pyridazin-3-yl}phenyl)acetonitrile]	200 to 500
O=c1c2c(-c3ccncc3)coc2ccn1CCc1nc2ccccc2[nH]1 [Example 229, 5-(2-(1H-Benzo[d]imidazol-2-yl)ethyl)-3-(pyridin-4-yl)furo[3,2-c]pyridin-4(5H)-one hydrochloride]	< 100
COc1cncc(-c2cccc3cnn(CCc4ccc5ccccc5n4)c(=O)c23)c1 [Example 136, 8-(5-Methoxypyridin-3-yl)-2-[2-(quinolin-2-yl)ethyl]phthalazin-1(2H)-one]	< 100
O=c1c2c(-c3cc[nH]n3)csc2cnn1CCc1ccc2ccccc2n1 [compound 315, 3-(1H-pyrazol-3-yl)-5-[2-(quinolin-2-yl)ethyl]thieno[2,3-d]pyridazin-4(5H)-one]	< 100
O=c1c2c(-c3ccncc3)csc2c(-c2ccncc2)nn1CCc1ccc2ccccc2n1 [Example 1, 3,7-Di(pyridin-4-yl)-5-[2-(quinolin-2-yl)ethyl]thieno[2,3-d]pyridazin-4(5H)-one]	< 100
O=c1c2cccc(N3CCS(=O)(=O)CC3)c2cnn1CCc1ccc2ccccc2n1 [Example 195, 5-(1,1-Dioxidothiomorpholin-4-yl)-2-[2-(quinolin-2-yl)ethyl]phthalazin-1(2H)-one]	100 to 200
O=c1c2c(-c3ccccc3O)csc2cnn1CCc1ccc2ccccc2n1 [Example 23, 3-(2-hydroxyphenyl)-5-[2-(quinolin-2-yl)ethyl]thieno[2,3-d]pyridazin-4(5H)-one]	< 100
O=c1c2c(-c3ccncc3)csc2cnn1CCc1cn2ccc(F)cc2n1 [Example 97, 5-[2-(7-Fluoroimidazo[1,2-a]pyridin-2-yl)ethyl]-3-(pyridin-4-yl)thieno[2,3-d]pyridazin-4(5H)-one]	< 100
O=c1c2c(-c3ccncc3)cccc2ccn1C1CC1c1ccc2ccccc2n1 (single isomer, unassigned; (-)) [Example 222b, (−) 8-(pyridin-4-yl)-2-(2-(quinolin-2-yl)cyclopropyl)isoquinolin-1(2H)-one]	< 100

SMILES	IC50 [nM]
O=c1c2c(-c3cc[nH]n3)cccc2cnn1CCc1cn2ccccc2n1 [compound 328, 2-[2-(imidazo[1,2-a]pyridin-2-yl)ethyl]-8-(1H-pyrazol-3-yl)phthalazin-1(2H)-one]	200 to 500
O=c1c2c(-c3ccncc3)csc2cnn1CCc1ccc2ccc(F)cc2n1 [compound 322, 5-[2-(7-fluoroquinolin-2-yl)ethyl]-3-(pyridin-4-yl)thieno[2,3-d]pyridazin-4(5H)-one]	200 to 500
O=c1c2c(N3CCCCC3)cccc2cnn1CCc1cn2ccccc2n1 [Example 181, 2-[2-(Imidazo[1,2-a]pyridin-2-yl)ethyl]-8-(piperidin-1-yl)phthalazin-1(2H)-one hydrochloride]	200 to 500
O=c1c2c(-c3ccc(F)nc3)csc2ccn1C1CC1c1ccc2ccccc2n1 (stereo not shown) [compound 283]	< 100
O=c1c2c(-c3ccnc(F)c3)csc2ccn1[C@@H]1C[C@H]1c1ccc2ccccc2n1 (relative stereo) [compound 286]	< 100
O=c1c2c(N3CCOCC3)cccc2ccn1[C@@H]1C[C@H]1c1ccc2cc(F)ccc2n1 (relative stereo) [Example 271, anti 2-(2-(6-fluoroquinolin-2-yl)cyclopropyl)-8-morpholinoisoquinolin-1(2H)-one]	< 100
O=c1c2c(-c3ccncc3)cccc2cnn1CCc1ccc2ccccc2n1 [Example 98, 8-(Pyridin-4-yl)-2-[2-(quinolin-2-yl)ethyl]phthalazin-1(2H)-one]	< 100
O=c1c2c(-c3ccoc3)cccc2cnn1CCc1cn2ccccc2n1 [Example 170, 8-(Furan-3-yl)-2-[2-(Imidazo[1,2-a]pyridin-2-yl)ethyl]phthalazin-1(2H)-one]	< 100
O=c1c2c(-c3cncc(F)c3)cccc2cnn1CCc1ccc2ccccc2n1 [Example 137, 8-(5-Fluoropyridin-3-yl)-2-[2-(quinolin-2-yl)ethyl]phthalazin-1(2H)-one]	< 100
O=c1c2c(NC3COC3)ccnc2cnn1CCc1ccc2ccccc2n1 [compound 406, 4-(oxetan-3-ylamino)-6-[2-(quinolin-2-yl)ethyl]pyrido[2,3-d]pyridazin-5(6H)-one]	< 100
O=c1c2c(NC3COC3)cccc2cnn1CCc1cn2ccccc2n1 [compound 395, 2-[2-(imidazo[1,2-a]pyridin-2-yl)ethyl]-8-(oxetan-3-ylamino)phthalazin-1(2H)-one]	< 100
O=c1c2c(-c3ccoc3)cccc2cnn1CCc1ccc2ccccc2n1 [Example 127, 8-(Furan-3-yl)-2-[2-(quinolin-2-yl)ethyl]phthalazin-1(2H)-one]	< 100
COC1CCN(c2cccc3ccn([C@@H]4C[C@H]4c4ccc5ccccc5n4)c(=O)c23)CC1 (relative stereo) [Example 252, anti 8-(4-methoxypiperidin-1-yl)-2-(2-(quinolin-2-yl)cyclopropyl)isoquinolin-1(2H)-one (2E)-but-2-enedioate]	< 100
O=c1c2c(-c3cncnc3)csc2cnn1C1CC1c1ccc2ccccc2n1 (stereo not shown) [compound 290]	< 100
O=c1c2c(-c3ccncc3)csc2cnn1CCc1ccc2cc(Cl)ccc2n1 [compound 318, hydrochloride]	200 to 500

Tested on: rats
Experiment: not given
Settings: rat, in vivo; cited from earlier work

SMILES	reduction of amphetamine-induced hyperactivity
COc1ccc(Cc2nccc3cc(OC)c(OC)cc23)cc1OC [Papaverine, papaverine]	insignificant

Tested on: rats
Experiment: not given
Settings: compound alone; cited from earlier work

SMILES	catalepsy on its own
COc1ccc(Cc2nccc3cc(OC)c(OC)cc23)cc1OC [Papaverine, papaverine]	did not cause catalepsy on its own

Same assay, conditions: with haloperidol; cited from earlier work

SMILES	cataleptic effect of the D2 receptor antagonist haloperidol
COc1ccc(Cc2nccc3cc(OC)c(OC)cc23)cc1OC [Papaverine, papaverine]	potentiated the cataleptic effect

Tested on: rats
Experiment: not given
Settings: cited from earlier work

SMILES	hyperactivity induced by PCP
COc1ccc(Cc2nccc3cc(OC)c(OC)cc23)cc1OC [Papaverine, papaverine]	reduced hyperactivity
